The record followed here is US20240279233A1, “MACROCYCLIC TAK1 INHIBITORS” (Aqilion AB, priority 2021, published 2024).

Chain of human recombinant TAK1-TAB1 Kinase (TAK1 (1-303) and TAB1 (437-end)) (O43318 other isoform, or with tags, fused parts or gaps): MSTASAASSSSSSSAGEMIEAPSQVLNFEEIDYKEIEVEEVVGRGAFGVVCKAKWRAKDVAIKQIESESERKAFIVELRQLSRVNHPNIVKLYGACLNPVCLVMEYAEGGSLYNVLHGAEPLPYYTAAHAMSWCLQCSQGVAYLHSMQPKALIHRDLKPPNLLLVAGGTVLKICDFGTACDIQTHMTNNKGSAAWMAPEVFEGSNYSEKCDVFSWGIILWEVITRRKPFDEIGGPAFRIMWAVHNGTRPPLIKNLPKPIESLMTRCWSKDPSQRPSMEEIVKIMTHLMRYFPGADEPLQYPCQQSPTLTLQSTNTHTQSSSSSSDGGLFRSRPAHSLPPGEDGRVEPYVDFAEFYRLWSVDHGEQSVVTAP

The first assay addresses human recombinant TAK1-TAB1 Kinase (TAK1 (1-303) and TAB1 (437-end)) (Homo sapiens (Human), UniProt O43318). As to the kind of experiment: TAK1 biochemical ADP-Glo kinase assay. Conditions: 10 μM ATP, MBP substrate; read-out: TAK1 Mean IC50 (nM) @ 10 μM ATP. On the procedure:
The usefulness of the example compounds of the invention as TAK1 inhibitors was evaluated in a biochemical ADP-Glo kinase assay. Assay kits from Promega Corporation V4089 were used according to manufacturer's instructions and adapted as outlined here. ADP-Glo Kinase Assay kit contains ADP-Glo Reagent, Kinase Detection Reagent, kinase detection buffer, ATP, and ADP. The Kinase Enzyme Systems include human recombinant TAK1-TAB1 Kinase (TAK1 (1-303) and TAB1 (437-end)), Native Swine Myelin Basic Protein (MBP) substrate, 5×kinase reaction buffer, and DTT.
Test compounds were prepared in 1:5 serial dilutions at 8 concentrations in DMSO from 10 mM stock solutions. An additional 20-fold dilution in 1× kinase reaction buffer (see below) was performed, yielding a final dilution series in kinase buffer with 5% DMSO (final concentration in assay from 20 μM to 0.26 nM, 1% DMSO). As controls, Takinib was prepared as positive control (3 μM final in assay), and DMSO without inhibitor served as negative control, at a final assay concentration of DMSO of 1%.
One μl of compound solution in 5% DMSO was added to each well in a 384 well microtiter plate (OptiPlate #6007290). Two μl TAK1-TAB1 (7.5 ng/μl) in lxkinase reaction buffer ([…] Tris base pH 7.5, 20 mM MgCl2, 50 μM DTT, 0.1 mg/ml BSA) was added and pre-incubated 10 min before adding 2 μl of a mixture of MBP substrate and ATP (0.25 μg/μL MBP/25 μM ATP or 0.25 μg/μL MBP/2.5 mM ATP) in 1× kinase reaction buffer (as above). The plate was subsequently incubated at room temperature for 1 hour. Then 5 μl ADP-Glo™ reagent from ADP-Glo™ kit (as above) was added and incubated for 40 min to stop the reaction and consume remaining ATP. Ten μl kinase detection substrate (dissolved in kinase detection buffer, both from ADP-Glo™ kit as above) was then added to convert ADP to ATP and detect ATP with luciferase/luciferin. The plate was incubated for 30 minutes at room temperature in dark before reading luminescence on an Envision (PerkinElmer) reader.
IC50 values of compounds of the invention were determined by the non-linear regression analysis of dose response curves.
For orientation: In ADP-Glo the light output rises with the ADP produced.
Broadly, the IC50 is the concentration at which inhibition is half-maximal. Regarding `CC1CCCCNC(=O)c2cccc(c2)C(=O)Nc2nc3cccc(C(=O)N(C)C)c3n21` (single isomer, unassigned) [Example 31, (E)-N,N,11-trimethyl-3,5-dioxo-1^2,1^3-dihydro-1^1H-2,6-diaza-1(2,1)-benzo[d]imidazola-4(1,3)-benzenacycloundecaphane-1^7-carboxamide], the IC50 was 3 nM.

As for `CC1CCCCNC(=O)c2cccc(c2)C(=O)Nc2nc3cccc(-c4ccc[nH]c4=O)c3n21` (single isomer, unassigned) [Example 35, (E)-11-methyl-1^7-(2-oxo-1,2-dihydropyridin-3-yl)-1^2,1^3-dihydro-1^1H-2,6-diaza-1(2,1)-benzo[d]imidazola-4(1,3)-benzenacycloundecaphane-3,5-dione], the IC50 is 5 nM.

Turning to `CC1CCCCNC(=O)c2cccc(c2)C(=O)Nc2nc3cccc(-c4ccc[nH]c4=O)c3n21` (single isomer, unassigned) [Example 36, (E)-11-methyl-1^7-(2-oxo-1,2-dihydropyridin-3-yl)-1^2,1^3-dihydro-1^1H-2,6-diaza-1(2,1)-benzo[d]imidazola-4(1,3)-benzenacycloundecaphane-3,5-dione], the IC50 was determined as 6 nM.

On to `C[C@H]1CCCCNC(=O)c2cccc(c2)C(=O)Nc2nc3ccc(Cl)c(C(=O)N(C)C)c3n21` (single isomer, unassigned) [Example 53], for which the IC50 came out at 258 nM.

With `CC1CCCCNC(=O)c2cccc(c2)C(=O)/N=C2\Nc3cccc(C4CCCNC4=O)c3N21` (single isomer, unassigned) [Example 58, (E)-11-methyl-1^7-(2-oxopiperidin-3-yl)-1^2,1^3-dihydro-1^1H-2,6-diaza-1(2,1)-benzo[d]imidazola-4(1,3)-benzenacycloundecaphane-3,5-dione], the IC50 worked out at 4 nM.

For the compound `CC1CCCCNC(=O)c2cccc(c2)C(=O)/N=C2\Nc3cccc(C4CCCNC4=O)c3N21` (single isomer, unassigned) [Example 59, (E)-11-methyl-1^7-(2-oxopiperidin-3-yl)-1^2,1^3-dihydro-1^1H-2,6-diaza-1(2,1)-benzo[d]imidazola-4(1,3)-benzenacycloundecaphane-3,5-dione], the IC50 was determined as 4 nM.

For `CC1CCCCNC(=O)c2cccc(c2)C(=O)/N=C2\Nc3cccc(C4CCCNC4=O)c3N21` (single isomer, unassigned) [Example 60, (E)-11-methyl-1^7-(2-oxopiperidin-3-yl)-1^2,1^3-dihydro-1^1H-2,6-diaza-1(2,1)-benzo[d]imidazola-4(1,3)-benzenacycloundecaphane-3,5-dione], the IC50 came to 5 nM.

Regarding `CC1CCCCNC(=O)c2cccc(c2)C(=O)/N=C2\Nc3cccc(C4CCCNC4=O)c3N21` (single isomer, unassigned) [Example 61, (E)-11-methyl-1^7-(2-oxopiperidin-3-yl)-1^2,1^3-dihydro-1^1H-2,6-diaza-1(2,1)-benzo[d]imidazola-4(1,3)-benzenacycloundecaphane-3,5-dione], the IC50 is 4 nM.

With `CC1CCCCNC(=O)c2cccc(c2)C(=O)/N=C2\Nc3cccc(-c4cc[nH]c(=O)c4)c3N21` (single isomer, unassigned) [Example 62, (E)-11-methyl-1^7-(2-oxo-1,2-dihydropyridin-4-yl)-1^2,1^3-dihydro-1^1H-2,6-diaza-1(2,1)-benzo[d]imidazola-4(1,3)-benzenacycloundecaphane-3,5-dione], the IC50 is 12 nM.

As to `CC1CCCCNC(=O)c2cccc(c2)C(=O)/N=C2\Nc3cccc(-c4cc[nH]c(=O)c4)c3N21` (single isomer, unassigned) [Example 63, (E)-11-methyl-1^7-(2-oxo-1,2-dihydropyridin-4-yl)-1^2,1^3-dihydro-1^1H-2,6-diaza-1(2,1)-benzo[d]imidazola-4(1,3)-benzenacycloundecaphane-3,5-dione], the IC50 came to 8 nM.

For the compound `CCC1CCCCNC(=O)c2cccc(c2)C(=O)Nc2nc3cccc(C(=O)N(C)C)c3n21` (single isomer, unassigned) [Example 67, (E)-11-ethyl-N,N-dimethyl-3,5-dioxo-1^2,1^3-dihydro-1^1H-2,6-diaza-1(2,1)-benzo[d]imidazola-4(1,3)-benzenacycloundecaphane-1^7-carboxamide], the IC50 turned out to be 5 nM.

Turning to `CCC1CCCCNC(=O)c2cccc(c2)C(=O)Nc2nc3cccc(C(=O)N(C)C)c3n21` (single isomer, unassigned) [Example 68, (E)-11-ethyl-N,N-dimethyl-3,5-dioxo-1^2,1^3-dihydro-1^1H-2,6-diaza-1(2,1)-benzo[d]imidazola-4(1,3)-benzenacycloundecaphane-1^7-carboxamide], the IC50 came out at 4 nM.

For the compound `CC1CCCCNC(=O)c2cccc(c2)C(=O)/N=C2\Nc3cccc(C(=O)N(C)CCF)c3N21` (single isomer, unassigned) [Example 71, (E)-N-(2-fluoroethyl)-N,11-dimethyl-3,5-dioxo-1^2,1^3-dihydro-1^1H-2,6-diaza-1(2,1)-benzo[d]imidazola-4(1,3)-benzenacycloundecaphane-1^7-carboxamide], the IC50 was determined as 6 nM.

As to `CC1CCCCNC(=O)c2cccc(c2)C(=O)/N=C2\Nc3cccc(C(=O)N(C)CC(F)F)c3N21` (single isomer, unassigned) [Example 72, (E)-N-(2,2-difluoroethyl)-N,11-dimethyl-3,5-dioxo-1^2,1^3-dihydro-1^1H-2,6-diaza-1(2,1)-benzo[d]imidazola-4(1,3)-benzenacycloundecaphane-1^7-carboxamide], the IC50 came to 7 nM.

For the compound `CC1CCCCNC(=O)c2cccc(c2)C(=O)/N=C2\Nc3cccc(C(=O)N(C)CC(F)F)c3N21` (single isomer, unassigned) [Example 73, (E)-N-(2,2-difluoroethyl)-N,11-dimethyl-3,5-dioxo-1^2,1^3-dihydro-1^1H-2,6-diaza-1(2,1)-benzo[d]imidazola-4(1,3)-benzenacycloundecaphane-1^7-carboxamide], the IC50 turned out to be 5 nM.

For `CC1CCCCNC(=O)c2cccc(c2)C(=O)/N=C2\Nc3cccc(C(=O)N4CCOC[C@H]4C)c3N21` (single isomer, unassigned) [Example 75], the IC50 was determined as 11 nM.

As to `CC1CCCCNC(=O)c2cccc(c2)C(=O)/N=C2\Nc3cccc(C(=O)N4CCOC[C@@H]4C)c3N21` (single isomer, unassigned) [Example 77], the IC50 turned out to be 5 nM.

Turning to `CC1CCCCNC(=O)c2cccc(c2)C(=O)/N=C2\Nc3cccc(C(=O)N4CC5(CCO5)C4)c3N21` (single isomer, unassigned) [Example 80, (E)-11-methyl-1^7-(1-oxa-6-azaspiro[3.3]heptane-6-carbonyl)-1^2,1^3-dihydro-1^1H-2,6-diaza-1(2,1)-benzo[d]imidazola-4(1,3)-benzenacycloundecaphane-3,5-dione], the IC50 was found to be 5 nM.

For `COC1CN(C(=O)c2cccc3c2N2/C(=N/C(=O)c4cccc(c4)C(=O)NCCCCC2C)N3)C1` (single isomer, unassigned) [Example 81, (E)-1^7-(3-methoxyazetidine-1-carbonyl)-11-methyl-1^2,1^3-dihydro-1^1H-2,6-diaza-1(2,1)-benzo[d]imidazola-4(1,3)-benzenacycloundecaphane-3,5-dione], the IC50 amounted to 6 nM.

As for `COC1CN(C(=O)c2cccc3c2N2/C(=N/C(=O)c4cccc(c4)C(=O)NCCCCC2C)N3)C1` (single isomer, unassigned) [Example 82, (E)-1^7-(3-methoxyazetidine-1-carbonyl)-11-methyl-1^2,1^3-dihydro-1^1H-2,6-diaza-1(2,1)-benzo[d]imidazola-4(1,3)-benzenacycloundecaphane-3,5-dione], the IC50 turned out to be 7 nM.

With `CC1CCCCNC(=O)c2cccc(c2)C(=O)/N=C2\Nc3cccc(C(=O)N4CC[C@H](F)C4)c3N21` (single isomer, unassigned) [Example 88], the IC50 amounted to 9 nM.

Turning to `CC1CCCCNC(=O)c2cccc(c2)C(=O)Nc2nc3cccc(-c4nccn4C(F)F)c3n21` (single isomer, unassigned) [Example 91, (E)-1^7-(1-(difluoromethyl)-1H-imidazol-2-yl)-11-methyl-1^2,1^3-dihydro-1^1H-2,6-diaza-1(2,1)-benzo[d]imidazola-4(1,3)-benzenacycloundecaphane-3,5-dione], the IC50 came to 5 nM.

As to `CC1CCCCNC(=O)c2cccc(c2)C(=O)/N=C2\Nc3cccc(C(=O)N4CC[C@@H](F)C4)c3N21` (single isomer, unassigned) [Example 92], the IC50 stood at 6 nM.

The same assay, now with this note: 1 mM ATP, MBP substrate; read-out: TAK1 Mean IC50 (nM) @ 1 mM ATP.
Regarding `CC1CCCCNC(=O)c2cccc(c2)C(=O)Nc2nc3cccc(C(=O)N(C)C)c3n21` (single isomer, unassigned) [Example 31, (E)-N,N,11-trimethyl-3,5-dioxo-1^2,1^3-dihydro-1^1H-2,6-diaza-1(2,1)-benzo[d]imidazola-4(1,3)-benzenacycloundecaphane-1^7-carboxamide], the IC50 was 14 nM.

In the case of `CC1CCCCNC(=O)c2cccc(c2)C(=O)/N=C2\Nc3cccc(C(=O)N(C)CCF)c3N21` (single isomer, unassigned) [Example 71, (E)-N-(2-fluoroethyl)-N,11-dimethyl-3,5-dioxo-1^2,1^3-dihydro-1^1H-2,6-diaza-1(2,1)-benzo[d]imidazola-4(1,3)-benzenacycloundecaphane-1^7-carboxamide], the IC50 was found to be 27 nM.

Turning to `CC1CCCCNC(=O)c2cccc(c2)C(=O)Nc2nc3cccc(-c4nccn4C(F)F)c3n21` (single isomer, unassigned) [Example 91, (E)-1^7-(1-(difluoromethyl)-1H-imidazol-2-yl)-11-methyl-1^2,1^3-dihydro-1^1H-2,6-diaza-1(2,1)-benzo[d]imidazola-4(1,3)-benzenacycloundecaphane-3,5-dione], the IC50 was 19 nM.
